The numbers were not newly measured in patent US20240165275A1, “STABLE FORMULATIONS OF INDOCYANINE GREEN” (PROVEPHARM LIFE SOLUTIONS, priority 2021, published 2024), which cites them from elsewhere.

For data set [1] the following is noted: stored at 4° C. in the dark.
The conditions of data set [2]: after 10 hours of storage in water and direct light.

In the case of `CC1(C)C(/C=C/C=C/C=C/C=C2\N(CCCCS(=O)(=O)[O-])c3ccc4ccccc4c3C2(C)C)=[N+](CCCCS(=O)(=O)[O-])c2ccc3ccccc3c21.[Na+]` [ICG, Indocyanine green], in data set [1], the stability on storage entry was “stable for three days”. Also, the fluorescence intensity lost in data set [1] (three days) was 20%. Also, the “reduction of absorbance at spectral peak” value in data set [2] is given as 10%.
